# According to PMC3265452 (PLoS Neglected Tropical Diseases, 2012):
# Structures can show the parent of a compound that is named as a salt.
# Target: AaDOP2 (Aedes aegypti, UniProt H6D5H2)
# Experiment: AaDOP2 antagonist screen of the LOPAC1280 library (HEK-CRELuc-Aadop2 cells, luminescence)
# Type: cell-based
# Conditions: not given
# AaDOP2, sequence (H6D5H2 1-476): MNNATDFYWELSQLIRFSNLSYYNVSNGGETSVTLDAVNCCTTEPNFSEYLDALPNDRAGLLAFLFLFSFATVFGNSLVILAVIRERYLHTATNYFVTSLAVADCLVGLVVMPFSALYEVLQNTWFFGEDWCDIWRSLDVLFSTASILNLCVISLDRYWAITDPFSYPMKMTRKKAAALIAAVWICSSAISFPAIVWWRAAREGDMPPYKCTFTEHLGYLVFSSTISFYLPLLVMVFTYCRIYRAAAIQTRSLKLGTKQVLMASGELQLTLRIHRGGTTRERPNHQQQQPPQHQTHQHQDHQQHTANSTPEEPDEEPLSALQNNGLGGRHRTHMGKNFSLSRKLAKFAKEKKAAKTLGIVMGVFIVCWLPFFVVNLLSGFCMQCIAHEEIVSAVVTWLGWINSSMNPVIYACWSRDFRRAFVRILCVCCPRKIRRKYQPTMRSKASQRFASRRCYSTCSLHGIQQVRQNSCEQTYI
Molecule,"Compound effect (percent receptor signaling in presence of test compound, relative lux units relative to the SCH23390 control)",% of the SCH23390 effect (percent inhibition of receptor response relative to the SCH23390 control)
"COc1ccc(C(=O)NCc2cccnc2)cc1C(=O)NCc1cccnc1 [Compound 981, Picotamide]",84,–
"N#C/C(=C\c1ccc(O)c(O)c1)C(=O)NCc1ccccc1 [Compound 1165, Tyrphostin AG 490]",96,–
"CNC(=O)Oc1ccc2c(c1)[C@]1(C)CCN(C)[C@@H]1N2C [Compound 497, (-)-Physostigmine]",93,–
"O=C1c2c(O)cc(O)cc2O[C@H](c2ccc(O)c(O)c2)[C@H]1O (racemic) [Compound 1176, (±)-Taxifolin]",102,–
"COC1=C(OC)C(=O)c2ccccc2C1=O [Compound 392, 2,3-Dimethoxy-1,4-naphthoquinone]",45,–
"C=C(C)[C@H]1Cc2c(ccc3c2O[C@@H]2COc4cc(OC)c(OC)cc4[C@@H]2C3=O)O1 [Compound 1056, Rotenone]",41,–
"CCCCCCCCCCCCCCCC(=O)OC(CC(=O)O)C[N+](C)(C)C.[Cl-] (racemic) [Compound 943, Palmitoyl-DL-Carnitine chloride]",59,–
Oligomycin A [Compound 906],82,–
"C[N+](C)(C)CCO.[Br-] [Compound 234, Choline bromide]",89,–
"CC(C)OC(=O)C(C)(C)Oc1ccc(C(=O)c2ccc(Cl)cc2)cc1 [Compound 521, Fenofibrate]",95,–
"c1ccc(C2CN3CCSC3=N2)cc1 (stereo not drawn) [Compound 1152, Tetramisole hydrochloride]",118,–
"Nc1ccc(S(=O)(=O)Nc2ccnn2-c2ccccc2)cc1 [Compound 1078, Sulfaphenazole]",112,–
"COc1ccc2c(c1)[C@@]13CCCC[C@H]1[C@@H](C2)NCC3.Cl [Compound 831, 3-Methoxy-morphanin hydrochloride]",94,–
"COc1ccc2[nH]c(I)c(CCNC(C)=O)c2c1 [Compound 637, 2-Iodomelatonin]",113,–
"N#CC(=C(/N)Sc1ccccc1N)/C(C#N)=C(/N)Sc1ccccc1N [Compound 1250, U0126]",108,–
"CN1CCN(C2=Nc3ccccc3Oc3ccc(Cl)cc32)CC1 [Compound 720, Loxapine succinate]",3,–
"CN1C2CCC1CC(OC(c1ccccc1)c1ccc(Cl)cc1)C2.Cl (stereo not drawn) [Compound 347, 4'-Chloro-3-alpha-(diphenylmethoxy)tropane hydrochloride]",15,85%
"C=C[C@H]1C[N@@]2CC[C@H]1C[C@H]2[C@H](O)c1ccnc2ccc(OC)cc12 [Compound 1031, Quinine sulfate]",79,–
"Cc1ccc2c(c1)C(N1CCN(C)CC1)=Nc1cccnc1N2 [Compound 681, JL-18]",2,98%
"COCC(=O)O[C@]1(CCN(C)CCCc2nc3ccccc3[nH]2)CCc2cc(F)ccc2[C@@H]1C(C)C [Compound 779, Mibefradil dihydrochloride]",93,–
SKF 95282 dimaleate [Compound 1237],96,–
"CC#C[C@]1(O)CC[C@H]2[C@@H]3CCC4=CC(=O)CCC4=C3[C@@H](c3ccc(N(C)C)cc3)C[C@@]21C [Compound 801, Mifepristone]",94,–

Molecule,"Compound effect (percent receptor signaling in presence of test compound, relative lux units relative to the SCH23390 control)",% of the SCH23390 effect (percent inhibition of receptor response relative to the SCH23390 control)
"CN(C)C/C=C(/c1ccc(Br)cc1)c1cccnc1 [Compound 1280, Zimelidine dihydrochloride]",80,–
"Nc1ccncc1 [Compound 12, 4-Aminopyridine]",110,–
"COC(=O)[C@@H](N)Cc1ccc(O)c(O)c1.Cl [Compound 364, L-3,4-Dihydroxyphenylalanine methyl ester hydrochloride]",90,–
"Oc1ncnc2[nH]ncc12 [Compound 91, Allopurinol]",101,–
"CC(=O)OCC1=C(C(=O)O)N2C(=O)[C@@H](NC(=O)CSc3ccncc3)[C@H]2SC1 [Compound 308, Cephapirin sodium]",116,–
"CCCCCCCCCCCCCCCC(=O)NCC(COP(=O)([O-])OCC[N+](C)(C)C)OCC (racemic) [Compound 488, rac-2-Ethoxy-3-hexadecanamido-1-propylphosphocholine]",42,–
"Cc1nc2c([nH]1)c(=O)n(C)c(=O)n2Cc1ccco1 [Compound 542, Furafylline]",120,–
"NC(=O)c1cccc(N)c1 [Compound 21, 3-aminobenzamide]",96,–
"S=C=Nc1cccc(C2(N3CCCCC3)CCCCC2)c1 [Compound 821, Metaphit methanesulfonate]",93,–
"CP(=O)(O)CCCN.Cl [Compound 138, SKF 97541 hydrochloride]",101,–
"O=C(c1cc(O)c(O)c([N+](=O)[O-])c1)c1ccccc1F [Compound 1065, Ro 41-0960]",88,–
"NCCS(=O)(=O)O [Compound 1146, Taurine]",101,–
"N=c1ccn2c(n1)O[C@H]1[C@H](O)[C@@H](CO)O[C@H]12 [Compound 95, Ancitabine hydrochloride]",119,–
"CC(C)NCC(O)COc1cccc2[nH]ccc12 (stereo not drawn) [Compound 920, Pindolol]",96,–
"CCCCOC(=O)NS(=O)(=O)c1sc(CC(C)C)cc1-c1ccc(Cn2c(CC)nc3c(C)cc(C)nc32)cc1 [Compound 694, L-162,313]",99,–
"CC[C@@H](CO)NC(=O)[C@@H]1C=C2c3cccc4c3c(cn4C)C[C@H]2N(C)C1 [Compound 823, Methysergide maleate]",82,–
"Cl.OCc1c[nH]cn1 [Compound 581, 4-Imidazolemethanol hydrochloride]",114,–
"O=c1c2ccccc2[se]n1-c1ccccc1 [Compound 487, Ebselen]",102,–
"CC(C)NC[C@H](O)COc1cccc2[nH]ccc12 [Compound 387, S(-)-Pindolol]",91,–
"C=CCN1CC[C@]23c4c5ccc(O)c4O[C@H]2/C(=N/NC(=O)c2ccccc2)CC[C@@]3(O)[C@H]1C5 [Compound 889, Naloxone benzoylhydrazone]",101,–
"COc1cccc(OC)c1OCCNCC1CSc2ccccc2O1 (stereo not drawn) [Compound 199, Benoxathian hydrochloride]",68,–

# Same assay, conditions: 10 µM compound, 300 nM dopamine, 2 hr; hit = compound effect <20
row,Molecule,"Compound effect (percent receptor signaling in presence of test compound, relative lux units relative to the SCH23390 control)"
1,"CN1CCN(c2nc3cc(C(F)(F)F)ccc3n3cccc23)CC1.O=C(O)/C=C\C(=O)O [Compound 330, CGS-12066A maleate]",104%
2,"Nc1ncnc2c1ncn2[C@@H]1O[C@H](C(=O)NC2CC2)[C@@H](O)[C@H]1O [Compound 282, 5'-(N-Cyclopropyl)carboxamidoadenosine]",82%
3,"CC(C)(C)NCC(O)c1ccc(O)c(CO)c1.CC(C)(C)NCC(O)c1ccc(O)c(CO)c1.O=S(=O)(O)O (stereo not drawn) [Compound 1102, Albuterol hemisulfate]",106%
4,"C[N+]1(C)CCC(OC(=O)C(c2ccccc2)c2ccccc2)CC1.[I-] [Compound 449, 4-DAMP methiodide]",97%
5,"Nc1ccc2c3c(cccc13)C(=O)NC2=O [Compound 23, 4-Amino-1,8-naphthalimide]",104%
6,"CC(=O)NCCc1ccc(O)c(O)c1.O [Compound 98, N-Acetyldopamine monohydrate]",95%
7,"NS(=O)(=O)c1cccc2c1c([N+](=O)[O-])cc1nc([O-])c([O-])nc12.[Na+].[Na+] [Compound 892, NBQX disodium]",95%
8,"C[C@](N)(Cc1ccc(O)c(O)c1)C(=O)O [Compound 822, L-alpha-Methyl DOPA]",98%

# Same assay, conditions: read-out: % of the SCH23390 effect (percent inhibition of receptor response relative to the SCH23390 control)
row,Molecule,inhibition at 10 µM
1,"CN1CCN(C2=Nc3ccccc3Oc3ccc(Cl)cc32)CC1 [Compound 720, Loxapine succinate]",97%
